For 1 compound, CD thermal stabilization results are on record in paper PMC11073449 (Science (New York, N.Y.), 2023).

Experiment [1] has as its target T1, Aster-A (Mus musculus, UniProt Q8VEF1, L400A/F405I).
T1 sequence (Q8VEF1 334-562 L400A/F405I): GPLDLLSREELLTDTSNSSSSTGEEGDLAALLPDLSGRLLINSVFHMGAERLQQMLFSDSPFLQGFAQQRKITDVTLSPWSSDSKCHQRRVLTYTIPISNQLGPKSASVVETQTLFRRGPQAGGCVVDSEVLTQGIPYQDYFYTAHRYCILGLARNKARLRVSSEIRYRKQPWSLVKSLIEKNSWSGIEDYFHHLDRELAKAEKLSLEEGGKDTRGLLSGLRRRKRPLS
As to the kind of experiment: CD thermal stabilization. Type of experiment: binding.

Experiment [2] concerns the target T2, Aster-A (Mus musculus, UniProt Q8VEF1, L400A).
T2 sequence (Q8VEF1 334-562 L400A): T1 sequence (Q8VEF1 334-562 L400A/F405I) with I72F
The experiment in a line: CD thermal stabilization. Type of experiment: binding.

The structures appear in SMILES notation. Numbering of substitutions follows the chain as printed.

Take `O=C1[C@H](CC[C@H](O)c2ccc(F)cc2)[C@@H](c2ccc(O)cc2)N1c1ccc(F)cc1` [EZ, ezetimibe]: the CD thermal stabilization entry is given as “The Aster-A mutant L400A_F405I, as well as the single mutant L400A, reduced Aster-A thermal stability” at Aster-A [1] and “but the stability was increased by EZ” on Aster-A [2].
